27 molecules from article PMC8041284, “Tunable Methacrylamides for Covalent Ligand Directed Release Chemistry” (Journal of the American Chemical Society, 2021) can be followed below.

For this experiment, the target named is BTK (Homo sapiens, UniProt Q06187). Kind of experiment: biochemical. Conditions: read-out: BTK inhibition (%), 0.75 uM BTK, […] probe 3l, 15 min preincubation.
BTK, sequence (Q06187 402-655 limits assumed): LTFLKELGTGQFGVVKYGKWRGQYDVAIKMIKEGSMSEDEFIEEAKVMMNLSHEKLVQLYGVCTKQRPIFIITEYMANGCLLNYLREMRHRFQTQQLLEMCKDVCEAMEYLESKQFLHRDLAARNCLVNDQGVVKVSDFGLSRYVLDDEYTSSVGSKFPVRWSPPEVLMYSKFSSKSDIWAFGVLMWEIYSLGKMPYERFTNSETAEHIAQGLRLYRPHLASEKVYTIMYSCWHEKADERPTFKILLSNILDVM
Consider `CC(C)C(=O)OCC(=O)[C@@]12O[C@H](C3CCCCC3)O[C@@H]1C[C@H]1[C@@H]3CCC4=CC(=O)C=C[C@]4(C)[C@H]3[C@@H](O)C[C@@]12C` [PCM-0214834], for which the inhibition – broadly, the relative decrease from the control value, in per cent – at 10 µM was -6.9%.
Consider `O=C(Cc1cccc(OC(F)(F)F)c1)Nc1ccc(CCCCc2nnc(NC(=O)Cc3ccccn3)s2)nn1` [PCM-0215461], for which the inhibition at 10 µM was 0%.
The same measure for `C=CC(=O)N1CC(N2CCN(C(=O)CNc3cc(C4(C)CC4)c(Cl)cc3O)CC2)C1` [PCM-0215823]: -9.3%.
For `O=c1cc(-c2ccccc2)oc2c1ccc1ccccc12` [PCM-0216134] the value was -0.8%.
For `O=C(O)CCN1C(=O)/C(=C/c2ccc(-c3ccc([N+](=O)[O-])cc3)o2)SC1=S` [PCM-0215696] the value was 59.5%.
Take `CC(=O)N1CCN(c2ccc(OC[C@@H]3CO[C@@](Cn4ccnc4)(c4ccc(Cl)cc4Cl)O3)cc2)CC1` [PCM-0065423]: the inhibition at 10 µM is -29.8%.
The same measure for `CNCC(O)c1ccc(O)cc1` (stereo not drawn) [PCM-0065519]: 7%.
For `CCc1c(C(=O)C(N)=O)c2c(OCC(=O)O)cccc2n1Cc1ccccc1` [PCM-0094894], the inhibition at 10 µM was -16.3%.
The same measure for `CCN(CC)CCCCNc1ncc2cc(-c3cc(OC)cc(OC)c3)c(NC(=O)NC(C)(C)C)nc2n1` [PCM-0095037]: -9%.
With `O=C1CC(=O)c2c(Cl)c(Cl)c(Cl)c(Cl)c21` [PCM-0215201], the inhibition at 10 µM was found to be 79.5%.
As for `COc1cc([C@@H]2c3cc4c(cc3[C@@H](O[C@@H]3O[C@@H]5CO[C@@H](c6cccs6)O[C@H]5[C@H](O)[C@H]3O)[C@H]3COC(=O)[C@H]23)OCO4)cc(OC)c1O` [PCM-0095114], the inhibition at 10 µM stood at 24.1%.
The same measure for `COC(=O)c1cc(O)c(O)c(O)c1` [PCM-0215013]: 17.9%; for `O=C(/C=C/c1ccc(CN(CCO)CCc2c[nH]c3ccccc23)cc1)NO` [PCM-0095072]: -9.3%.
As for `Cn1nnc2c(C(N)=O)ncn2c1=O` [PCM-0086047], the inhibition at 10 µM was -4.1%.
Take `CC[C@]12C=CCN3CC[C@@]4(c5ccc(OC)cc5N(C)[C@H]4[C@@](O)(C(=O)OC)[C@@H]1OC(C)=O)[C@@H]32` [PCM-0215165]: the inhibition at 10 µM was 6.2%.
For `CCCCCCCCCCCCc1ccc(S(=O)(=O)Nc2nncs2)cc1` [PCM-0095111] the value was 53.8%; for `CSc1cccc(Nc2ncc3cc(-c4c(Cl)cccc4Cl)c(=O)n(C)c3n2)c1` [PCM-0215338], -18.6%; for `COc1ccc(OC)c(C2C(C#N)=C(N)Oc3n[nH]c(-c4ccc5ccccc5c4)c32)c1` (stereo not drawn) [PCM-0215398], 1.5%.
`CCN1CCN(Cc2ccc(-c3cc4c(N[C@H](C)c5ccccc5)ncnc4[nH]3)cc2)CC1` [PCM-0214628]: the inhibition at 10 µM turned out to be 41.4%.
Take `COc1ccc(CCNCC(O)COc2cccc(C)c2)cc1OC` (stereo not drawn) [PCM-0216046]: the inhibition at 10 µM is -4.6%.
`O=C(c1ccc(F)c(F)c1Nc1ccc(I)cc1F)N1CC(O)([C@@H]2CCCCN2)C1` [PCM-0215480]: the inhibition at 10 µM was -5.5%.
For `COc1c(O)cc2c(c1O)[C@@H]1O[C@H](CO)[C@@H](O)[C@H](O)[C@H]1OC2=O` [PCM-0214672] the value was 7%.
For `O=C1CCC[C@@H]2[C@H]3CCC[N@+]4([O-])CCC[C@@H](CN12)[C@@H]34` [PCM-0094874] the value was -8.6%; for `O=C(CCCN1CCC(O)(c2ccc(Cl)cc2)CC1)c1ccc(F)cc1` [PCM-0065124], -12.5%.
As for `O=C(N/N=C/c1cc(O)c(O)cc1O)c1cc2ccccc2cc1O` [PCM-0215496], the inhibition at 10 µM is 77.2%.
On to `C[C@H](CS)C(=O)N1CCC[C@H]1C(=O)O` [PCM-0064658], for which the inhibition at 10 µM is -2.3%.
The same measure for `COC(=O)C1=CO[C@@H](O[C@@H]2O[C@H](CO)[C@@H](O)[C@H](O)[C@H]2O)[C@H]2[C@@H]1C(=O)C[C@@H]2C` [PCM-0216534]: 6.9%.
